# Laboratory results: patent US20070213370A1, “5-HTP Combination Therapy” (H. Lundbeck A/S, priority 2005, published 2007)
# Like-named read-outs stand apart in the source and are kept apart here.
# Legend:
# [1] = typical doses of 100-200 mg 5-HTP; cited from earlier work
# [2] = Mouse plasma levels of 5-HTP; format: in vivo; conditions: mouse forced swim test with escitalopram versus human clinical efficacy
# Description: For this indication, typical doses of 100-200 mg of 5-HTP result in plasma levels of 50-100 ng/ml (Gijsman, H. J., et al., J Clin Psychopharmacol. 2002 April, 22(2):183-9).
# [3] = system: BALB/cByJ mice; assay: Mouse marble burying behavior; format: in vivo
# Source text: Male BALB/cByJ mice (Jackson labs, Bar Harbor, Me.) were housed 5/cage upon arrival, at which time they were 7-8 weeks of age. Animals acclimated to the housing facility under standard laboratory conditions for a period of at least one week before testing (lights on at 6:00 AM). […] Fifteen minutes after the second injection, animals were individually placed into novel cages in which a layer of Aspen Pine bedding on which two parallel rows of 10 marbles each (i.e. twenty total) were placed. After 30 minutes had elapsed, the mice were removed from their test cages and returned to their home cages. The number of fully visible marbles (less than ⅔ covered with bedding) were counted and subtracted from 20 to arrive at the number of marbles buried.
# [4] = cited from earlier work
# [5] = system: NMRI/BOM mice; assay: Mouse forced swim test; format: in vivo; conditions: for ED50: SRI alone, mouse forced swim test; for ED50, SRI + 5-HTP (25 mg/kg): SRI in combination with 5-HTP 25 mg/kg SC
# Source text: Male NMRI/BOM mice (18-25 g; Bomholtgaard, Denmark) were used. The mice were housed in plastic cages (35×30×12 cm), 10 in each and habituated to the animal facilities for at least a week before test. […] The animals had free access to commercial food pellets and tap water before test.
# A mouse that is forced to swim in a spatially constrained container will exert a characteristic immobile posture. Pretreatment with an antidepressant will counteract this effect. […] Briefly, a fully automated test system with 6 swim units (2000 ml glass jars filled with 1200 ml soiled water (23-25° C.) in which a mouse had been placed previously) was used. The assessment of immobility was performed by image analysis.
# Thirty minutes after drug or vehicle treatment the mice were treated with 5-HTP and 20 min later the mice were placed into the glass jar and left in the water for a total of 6 min. The accumulated duration of immobility was measured during the last 3 min. A total of 9-18 mice were tested per dose.
# [6] = system: mouse; conditions: co-administration with L; cited from earlier work
# [7] = system: extra-cellular 5-HT in frontal cortex; assay: Rat microdialysis, extracellular 5-HT in frontal cortex of freely moving rats; format: in vivo; conditions: escitalopram 0.5 mg/kg s.c. versus fluoxetine 10 mg/kg s.c.; 5-HTP 25 mg/kg s.c. 60 min later
# Description: FIG. 1. […] Microdialysis in freely moving rats was performed as described in detail by Mark, […]. and Sanchez, C. […] Briefly, male Sprague-Dawley rats were prepared for microdialysis by surgically implanting intracerebral guide cannulas. A microdialysis probe was inserted through the guide cannula. Perfusion of the microdialysis probe with filtered Ringer solution (146 mM NaCl, 3 mM KCl, 1 mM MgCl2, 1.2 mM CaCl2) was done before the insertion of the probe and continued for the duration of the experiments at a constant flow of 1 μl/minute into the frontal cortex.
# [8] = system: rat; conditions: cited from earlier work
# [9] = in combination with escitalopram at a dose corresponding to a clinically effective concentration
smiles,measurement,setting,value
"NC(Cc1c[nH]c2ccc(O)cc12)C(=O)O (centres unmarked) [5-HTP, 2-amino-3-(5-hydroxy-1H-indol-3-yl)-propanoic acid]",plasma levels in humans,[1],50 to 100 ng/mL
same,factor by which potentiating plasma levels in mouse are lower than those required for clinical efficacy in humans,[2],at least 3 times
same,"marble burying, 5-HTP alone",[3]; 5-HTP 2.5 mg/kg,no behavioral effect
same,mouse plasma level,[4]; 5-HTP 25 mg/kg,17 ng/mL
same,mouse plasma level,[4]; 5-HTP 50 mg/kg,41 ng/mL
same,potentiation of the response to escitalopram,"[5]; 5-HTP 10, 15 and 50 mg/kg co-administered with escitalopram 0.5 mg/kg",significantly potentiates
same,effect of 5-HTP alone,[5]; 5-HTP 25 and 50 mg/kg without SRI,not by themselves effective
same,5-HTP dose at which maximum potentiation effect was achieved,[5]; [9],50 mg/kg
same,minimal effective dose of 5-HTP,[5]; [9],10 mg/kg
"Fc1ccc([C@@H]2CCNC[C@H]2COc2ccc3c(c2)OCO3)cc1 [Paroxetine, (3S,4R)-3-((1,3-benzodioxol-5-yloxy)methyl)-4-(4-fluorophenyl)-piperidine]",ED50,[5],6.5 mg/kg
same,"ED50, SRI + 5-HTP (25 mg/kg)",[5],0.64 mg/kg
same,"antiaggressive effect with a subeffective dose of L, 5-HTP",[6],greatly potentiated
COc1ccc(C(CN(C)C)C2(O)CCCCC2)cc1 (centres unmarked) [Venlafaxine],ED50,[5],> 10 mg/kg
same,"ED50, SRI + 5-HTP (25 mg/kg)",[5],3.9 mg/kg
CNCCC(Oc1ccc(C(F)(F)F)cc1)c1ccccc1 (centres unmarked) [Fluoxetine],ED50,[5],> 8.9 mg/kg
same,"ED50, SRI + 5-HTP (25 mg/kg)",[5],5.4 mg/kg
"CN(C)CCC[C@@]1(c2ccc(F)cc2)OCc2cc(C#N)ccc21 [Escitalopram, S-(+)-1-[3-(dimethylamino)propyl]-1-(p-fluorophenyl)-5-phthalancarbonitrileoxalate]",5-HTP potentiation effect measured as increase of extra-cellular 5-HT in the frontal cortex,[7],dramatically higher
same,"marble burying, escitalopram without 5-HTP",[3]; 0.25 mg/kg IP,inactive
same,"marble burying, escitalopram with 5-HTP",[3]; escitalopram 0.0625-0.25 mg/kg plus 5-HTP 2.5 mg/kg,significant reduction in marble burying
same,"anxiolytic response to co-treatment with L, 5-HTP",[8],markedly enhanced
same,ED50,[5],12 mg/kg
same,"ED50, SRI + 5-HTP (25 mg/kg)",[5],0.42 mg/kg
CN(C)CCC[C@]1(c2ccc(F)cc2)OCc2cc(C#N)ccc21 [R-citalopram],"anxiolytic response to co-treatment with L, 5-HTP",[8],significant increase of ultrasonic vocalization
